Assay results taken from patent US20080008724A1 (Statens Serum Institute, priority 2006, published 2008).

B1: TB10.4: protein expressed by M. tuberculosis, recombinant (SEQ ID NO: 2) (protein, listed as Mycobacterium tuberculosis)
chain: MSQIMYNYPAMLGHAGDMAGYAGTLQSLGAEIAVEQAALQSAWQGDTGITYQAWQAQWNQAMEDLVRAYHAMSSTHEANTMAMMARDTAEAAKWGGX
modifications: X not resolved here

System: IFN-γ producing T cells
Test: IFN-γ secretion (ELISA) of blood cells from mice vaccinated with TB10.4 antigens, stimulated with TB10.4 peptides
Assay type: in vivo
Conditions: for specific T-cell response (IFN-γ secretion, ELISA) after vaccination with the individual peptide: mice vaccinated three times with individual TB10.4 peptide in DDA/TDB, cells stimulated with 0.5 μg/ml of the same peptide

Row | Molecule | specific T-cell response (IFN-γ secretion, ELISA) after vaccination with the individual peptide | T-cell recognition of TB10.4 peptides P1-P9 (IFN-γ secretion, ELISA) after vaccination (mice vaccinated 3 times at 2-week intervals in DDA/TDB, blood cells two weeks after final vaccination, stimulated with 0.5 μg/ml of individual peptides)
1 | TB10.4-P1: amino acids 1 to 18 of SEQ ID NO: 2 (MSQIMYNYPAMLGHAGDM; listed as Mycobacterium tuberculosis) | induced a specific T-cell response | 
2 | TB10.4-P3: amino acids 21 to 38 of SEQ ID NO: 2 (YAGTLQSLGAEIAVEQAA; listed as Mycobacterium tuberculosis) | induced a specific T-cell response | 
3 | B1 |  | mainly induced P3 specific T cells
